From patent publication US11401264B2, “Heterocyclic compound” (Orizuru Therapeutics, Inc., priority 2018, dated 2022) come the findings set out here.

The test system of the test is cardiomyocytes (embryoid bodies) from double knock-in human iPS cell lines (mCherry at TNNI3 locus). As to the kind of experiment: Experimental Example 2: mCherry expression in TNNI1+ cells by flow cytometry. The format is cell-based. The conditions noted are these: 3 μM, 8th-16th day, DMSO control 7.8. Here is the method: For detection of cardiomyocyte maturation, double knock-in human iPS cell lines, in which reporter protein sequences, EmGFP (Sequence Number 1) and mCherry (Sequence Number 2) were inserted into gene loci for TNNI1 and TNNI3, respectively, were prepared (the human iPS cells were prepared from episomal vector (loaded gene; OCT3/4, KLF4, SOX2, L-MYC, LIN28, mouse p53DD) using PBMC (LP_167, Sample ID: 20130318) purchased from CTL (reference literature; Okita K, et al. Stem Cells. 2012 Nov. 29. doi: 10.1002/stem.1293)).
The maintenance culture of the above-mentioned reporter iPS cell lines was carried out by a conventional method (Okita K, et al. Stem Cells. 2012 Nov. 29. doi: 10.1002/stem.1293).
For differentiation induction into cardiomyocytes, the reporter iPS cell lines were treated with 0.5×TrypLE select (Life Technologies, diluted in 1/2 with 0.5 mM EDTA/PBS) for 4 to 5 minutes, and the cells were exfoliated using a cell scraper (IWAKI), and then dissociated into the single cell by pipetting. The medium was removed by centrifugation (1,000 rpm, 5 min), and the obtained cells were suspended in a medium prepared by adding 1% L-glutamine, transferrin 150 μg/mL, ascorbic acid 50 μg/mL (Sigma), monothioglycerol […], 10 μM Rock inhibitor (Y-27632), 2 ng/mL BMP4 (R&D) and 0.5% Matrigel (Growth Factor Reduced) to StemPro-34 SFM (ThermoFisher) in a 6 well-plate by 2×10^6 cells/1.5 mL/well, and then subjected to static culture at 37° C., under 5% oxygen condition to form embryoid bodies (0 day).
Next day (1st day), a medium prepared by adding 1% L-glutamine, transferrin 150 μg/mL, ascorbic acid 50 μg/mL (Sigma), monothioglycerol 4><10^−4 M, 1.8 μL (concentration 12 ng/mL) of 10 μg/mL activin A, […] (concentration 10 ng/mL) of 10 μg/mL bFGF and 2.7 μL (concentration 18 ng/mL) of 10 μg/mL BMP4 to 1.5 mL of StemPro-34 SFM (ThermoFisher) was added to each well of the 6 well plate containing the embryoid bodies to adjust the volume combined with the 0 day's medium to final 3 mL (activin A: 6 ng/ml, bFGF: 5 ng/ml, BMP4: 10 ng/ml), and the embryoid bodies were cultured at 37° C. for additional 2 days, under 5% oxygen condition.
Then (3rd day), the 6 well plate containing the embryoid bodies was inclined, and then left to stand for 1 to 2 minutes until the embryoid bodies were precipitated at the edges of the wells, and the supernatant was aspirated so as not to suck the embryoid bodies. Then, IMDM (ThermoFisher) medium was added to each well, and, as above, the plate was inclined, and then left to stand for 1 to 2 minutes, and the supernatant was aspirated so as not to suck the embryoid bodies. A medium prepared by adding 1% L-glutamine, transferrin 150 μg/mL, ascorbic acid 50 μg/mL (Sigma), monothioglycerol 4×10^−4 M, 10 ng/mL VEGF, 1 μM IWP-3, 0.6 μM dorsomorphin and 5.4 μM SB431542 to 3 mL of StemPro-34 SFM (ThermoFisher) was added to each well of the 6 well plate, and then the embryoid bodies were cultured at 37° C. for 3 days, under 5% oxygen condition.
Then (6th day), the 6 well plate containing the embryoid bodies was inclined, and then left to stand for 1 to 2 minutes until the embryoid bodies were precipitated at the edges of the wells, and the supernatant was aspirated so as not to suck the embryoid bodies. […]

For `O=C1c2ccc(N3CCOCC3)cc2CN1c1ccc2[nH]c(-c3ccc(Br)cc3)nc2c1` [Example 8, 2-(2-(4-bromophenyl)-1H-benzimidazol-5-yl)-5-(morpholin-4-yl)isoindolin-1-one], the “mCherry+ (%)” value is 61.0%.
